Results reported in patent publication EP4818168A1, “FUSED RING COMPOUND, PHARMACEUTICAL COMPOSITION THEREOF AND USE THEREOF” (priority 2023, dated 2025).
Like-named read-outs stand apart in the source and are kept apart here.

What was measured:
HCC1806 cells = assay: CTG assay of compound inhibition on cell viability (HCC1806 cells); type: cell-based; settings: Homo sapiens, HCC1806, 144 h, read-out: IC50 in HCC1806 Cells
Method: CellTiter-Glo (CTG) is a rapid cell viability test method based on ATP detection. […] Adenosine triphosphate (ATP) participates in various enzymatic reactions in organisms and is an indicator of living cell metabolism. Its content directly reflects the number of living cells and cell status. During the experiment, equal volume of CTG reagent is added to the cultured cells to measure the luminescence value. The chemiluminescent signal value is proportional to the amount of ATP, thus reflecting the number of viable cells. Therefore, cell viability can be obtained by detecting the ATP content. Compounds that affect cell viability will inhibit cell viability in a concentration-dependent manner, allowing a curve to be fitted to obtain the IC50 value.
The experimental procedure is as follows: • 11. Place the cell suspension in a 15 mL centrifuge tube, centrifuge at 1000 rpm for 5 min at room temperature, discard the supernatant, and collect the cell pellet. • 12. Resuspend the cell pellet with preheated complete cell culture medium (RPMI1640+10%FBS+1%PS), and use a Countess® automated cell counter to detect cell viability and density. The cell viability must be above 90%. • 13. […] Transfer the compound solution to a 96-well plate seeded with cells (final concentration of DMSO 0.1%), and place in a cell incubator at 37°C, 5% CO2 for 6 days. • 15. […] Protect from light during the whole process. Perform optical signal readings using a SpectraMax i3x reader. • 16. Data analysis: Remaining activity (%) = 100% * (1 - ((LumDMSO - Lummedium) - Lumsample) / (LumDMSO - LumPBS/medium)). Use GraphPad Prism 9.0 software to draw an S-shaped dose-survival rate curve and calculate the IC50 value using a nonlinear regression model.

AURKA = biological target: T1, AURKA (Homo sapiens, UniProt O14965); type: cell-based
T1 construct: endogenous in cells; host or cells: Jurkat cells
T1 sequence (O14965 1-403): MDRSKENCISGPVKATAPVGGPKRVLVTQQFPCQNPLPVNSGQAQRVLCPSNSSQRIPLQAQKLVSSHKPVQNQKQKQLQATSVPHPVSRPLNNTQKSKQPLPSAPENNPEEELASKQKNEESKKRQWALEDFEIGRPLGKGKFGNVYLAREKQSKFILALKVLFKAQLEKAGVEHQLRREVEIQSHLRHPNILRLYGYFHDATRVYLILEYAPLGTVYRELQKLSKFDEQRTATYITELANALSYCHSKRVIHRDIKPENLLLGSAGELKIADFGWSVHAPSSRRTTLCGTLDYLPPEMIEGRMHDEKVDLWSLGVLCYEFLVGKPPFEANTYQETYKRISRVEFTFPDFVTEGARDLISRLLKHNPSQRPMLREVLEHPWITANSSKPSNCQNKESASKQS
Outline: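 AURKA degradation read by western blot: band signal, fluorescent or chemiluminescent, curve-fitted to derive DC50. Cells were Jurkat, plated at 1×10^6 cells/500 µL with compound, then lysed and blotted onto nitrocellulose, primary antibody overnight at 4°C.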

[1] = 100 nM compound, Jurkat cells, 24 h, Table 1
[2] = 1 µM compound, Jurkat cells, 24 h, Table 1

SMILES | IC50 (HCC1806 cells) [nM] | Percentage of AURKA Degradation Induced by 100 nM Compound in Jurkat Cells (AURKA; [1]) | Percentage of AURKA Degradation Induced by 1 µM Compound in Jurkat Cells (AURKA; [2]) | Percentage of AURKA Degradation Induced by 100 nM Compound in Jurkat Cells (AURKA) | Percentage of AURKA Degradation Induced by 1 µM Compound in Jurkat Cells (AURKA)
COc1cc(Nc2ncc3c(n2)-c2ccc(Cl)cc2C(c2c(F)cccc2OC)=NC3)ccc1C(=O)NCCN1CCN(c2ccc(N3CCC(=O)NC3=O)nc2)CC1 [Compound A30] | < 1000 | ++ (30% < Degradation ≤ 70%) | ++ (30% < Degradation ≤ 70%) |  | 
COc1cc(Nc2ncc3c(n2)-c2ccc(Cl)cc2C(c2c(F)cccc2OC)=NC3)ccc1C(=O)NCCOCCNc1ccn2c(N3CCC(=O)NC3=O)cnc2c1 [Compound A32] | > 10000 | + (Degradation ≤ 30%) | + (Degradation ≤ 30%) |  | 
COc1cc(Nc2ncc3c(n2)-c2ccc(Cl)cc2C(c2c(F)cccc2OC)=NC3)ccc1C(=O)N1CC2(CN(Cc3cccc4c3C(=O)N(C3CCC(=O)NC3=O)C4=O)C2)C1 (stereo not drawn) [Compound A33] | < 1000 | ++ (30% < Degradation ≤ 70%) | ++ (30% < Degradation ≤ 70%) |  | 
COc1cc(Nc2ncc3c(n2)-c2ccc(Cl)cc2C(c2c(F)cccc2OC)=NC3)ccc1C(=O)N1CC(N(C)CC#Cc2cccc3c2CN(C2CCC(=O)NC2=O)C3=O)C1 (stereo not drawn) [Compound A34] | < 1000 | ++ (30% < Degradation ≤ 70%) | ++ (30% < Degradation ≤ 70%) |  | 
COc1cc(Nc2ncc3c(n2)-c2ccc(Cl)cc2C(c2c(F)cccc2OC)=NC3)ccc1C(=O)N1CCC2(CCN(c3ccc(N4CCC(=O)NC4=O)cc3)CC2)C1 [Compound A36] | < 1000 | + (Degradation ≤ 30%) | + (Degradation ≤ 30%) |  | 
O=C1CCN(c2ccc(N3CCC4(CC3)CC(NC(=O)c3ccc(Nc5ncc6c(n5)-c5ccc(Cl)cc5C(c5c(F)cccc5F)=NC6)cc3)C4)cc2)C(=O)N1 [Compound A37] | < 1000 | +++ (Degradation > 70%) | +++ (Degradation > 70%) |  | 
COc1cc(Nc2ncc3c(n2)-c2ccc(Cl)cc2C(c2c(F)cccc2OC)=NC3)ccc1C(=O)NC1CC2(CCN(c3ccc(N4CCC(=O)NC4=O)cc3)CC2)C1 [Compound A38] | < 1000 | +++ (Degradation > 70%) | +++ (Degradation > 70%) |  | 
COc1cc(Nc2ncc3c(n2)-c2ccc(Cl)cc2C(c2c(F)cccc2OC)=NC3)ccc1C(=O)N(C)C1CC2(CCN(c3ccc(N4CCC(=O)NC4=O)cc3)CC2)C1 [Compound A40] | < 1000 | ++ (30% < Degradation ≤ 70%) | + (Degradation ≤ 30%) |  | 
COc1cc(Nc2ncc3c(n2)-c2ccc(Cl)cc2C(c2c(F)cccc2OC)=NC3)ccc1C(=O)N1CC2(CCN(c3ccc(N4CCC(=O)NC4=O)cc3)CC2)C1 [Compound A42] | > 10000 | + (Degradation ≤ 30%) | + (Degradation ≤ 30%) |  | 
O=C1CCN(c2ccc(N3CC4(CCN(C(=O)c5ccc(Nc6ncc7c(n6)-c6ccc(Cl)cc6C(c6c(F)cccc6F)=NC7)cc5)C4)C3)cc2)C(=O)N1 [Compound A43] | > 10000 | + (Degradation ≤ 30%) | + (Degradation ≤ 30%) |  | 
COc1cc(Nc2ncc3c(n2)-c2ccc(Cl)cc2C(c2c(F)cccc2OC)=NC3)ccc1C(=O)N1CCC2(C1)CN(c1ccc(N3CCC(=O)NC3=O)cc1)C2 [Compound A44] | < 1000 | + (Degradation ≤ 30%) | + (Degradation ≤ 30%) |  | 
COc1cc(Nc2ncc3c(n2)-c2ccc(Cl)cc2C(c2c(F)cccc2OC)=NC3)ccc1C(=O)NCCN1CCN(c2ncc(N3CCC(=O)NC3=O)cn2)CC1 [Compound A45] | < 1000 | ++ (30% < Degradation ≤ 70%) | ++ (30% < Degradation ≤ 70%) |  | 
COc1cccc(F)c1C1=NCc2cnc(Nc3ccc(C(=O)NC4CC5(CCN(c6ccc(N7CCC(=O)NC7=O)cc6)CC5)C4)cc3)nc2-c2ccc(Cl)cc21 [Compound A46] | < 1000 | +++ (Degradation > 70%) | +++ (Degradation > 70%) |  | 
COc1cc(Nc2ncc3c(n2)-c2ccc(Cl)cc2C(c2c(F)cccc2OC)=NC3)ccc1C(=O)NCCN1CCN(c2ccc(C3CCC(=O)NC3=O)cc2)CC1 (stereo not drawn) [Compound A47] | < 1000 |  |  | ++ (key: +: Degradation ≤ 30%; ++: 30% < Degradation ≤ 70%; +++: Degradation > 70%) | + (key: +: Degradation ≤ 30%; ++: 30% < Degradation ≤ 70%; +++: Degradation > 70%)
COc1cc(Nc2ncc3c(n2)-c2ccc(Cl)cc2C(c2c(F)cccc2OC)=NC3)ccc1C(=O)NC1CN(CCc2ccc(N3CCC(=O)NC3=O)cc2)C1 [Compound A48] | < 1000 | + (Degradation ≤ 30%) | + (Degradation ≤ 30%) |  | 
COc1cc(Nc2ncc3c(n2)-c2ccc(Cl)cc2C(c2c(F)cccc2OC)=NC3)ccc1C(=O)N[C@H]1C[C@H](C#Cc2ccc(N3CCC(=O)NC3=O)cc2)C1 [Compound A51] | 1000 to 10000 | ++ (30% < Degradation ≤ 70%) | +++ (Degradation > 70%) |  | 
O=C1CCN(c2cccc(C#C[C@H]3C[C@H](NC(=O)c4ccc(Nc5ncc6c(n5)-c5ccc(Cl)cc5C(c5c(F)cccc5F)=NC6)cc4)C3)c2)C(=O)N1 [Compound A52] | < 1000 | ++ (30% < Degradation ≤ 70%) | ++ (30% < Degradation ≤ 70%) |  | 
COc1cc(Nc2ncc3c(n2)-c2ccc(Cl)cc2C(c2c(F)cccc2OC)=NC3)ccc1C(=O)NC1CC2(CCN(c3ccc(N4CCC(=O)NC4=O)cn3)CC2)C1 [Compound A54] | < 1000 | +++ (Degradation > 70%) | +++ (Degradation > 70%) |  | 
O=C1CCN(c2ccc(N3CCC4(CC3)CC(NC(=O)c3ccc(Nc5ncc6c(n5)-c5ccc(Cl)cc5C(c5c(F)cccc5F)=NC6)cc3)C4)nc2)C(=O)N1 [Compound A55] | < 1000 | +++ (Degradation > 70%) | +++ (Degradation > 70%) |  | 
O=C1CCN(c2ccc(N3CC4(CCC(NC(=O)c5ccc(Nc6ncc7c(n6)-c6ccc(Cl)cc6C(c6c(F)cccc6F)=NC7)cc5)CC4)C3)cc2)C(=O)N1 [Compound A56] | < 1000 | +++ (Degradation > 70%) | +++ (Degradation > 70%) |  | 
COc1cc(Nc2ncc3c(n2)-c2ccc(Cl)cc2C(c2c(F)cccc2OC)=NC3)ccc1C(=O)NC1CCC2(CC1)CN(c1ccc(N3CCC(=O)NC3=O)cc1)C2 [Compound A57] | < 1000 | +++ (Degradation > 70%) | +++ (Degradation > 70%) |  | 
